Experiments:
HyPAS formation = experiment: High content microscopy (HCM) quantification of HyPAS formation (overlap between FIP200 and FLAG-ATG16L1); assay type: cell-based, human
Procedure: (§1) HCM was performed as described previously (Kumar et al., 2019). Cells were stimulated for autophagy by incubating in EBSS for 2 h followed by fixation with 4% paraformaldehyde for 5 mins. Cells were permeabilized with 0.1% saponin and blocked in 3% BSA for 30 mins followed by incubation with primary antibody for 6 h and secondary antibody for 1 h. High content microscopy with automated image acquisition and quantification was carried out using a Cellomics HCS scanner and iDEV software (Thermo) in 96-well plates (Kumar et al., 2019). For HCM experiments >500 primary objects were counted per well, minimum 6 wells were counted per experiments and data presented in figures are derived from at least 3 independent experiments.
Immunofluorescence confocal microscopy was carried out as described previously (Kumar et al., 2019). Briefly, cells were plated onto coverslips in 6 well or 12-well plates. Transfected cells were incubated in full media or EBSS (Earle's Balanced Salt Solution) for 2 h and fixed in 4% paraformaldehyde for 10 min followed by permeabilization with 0.1% saponin in 3% BSA. Cells were blocked 3% BSA and then incubated with primary antibodies for 4 h. Cells were washed three times with PBS and then incubated with appropriate secondary antibodies (Invitrogen) for 1 h at room temperature. Coverslips were then mounted using ProLong Gold Antifade Mountant (Invitrogen) and analyzed by confocal microscopy using the Zeiss LSM510 Laser Scanning Microscope.

[1] = tested on: HyPAS formation in vitro (GFP-FIP200 and mCherry-ATG16L1 membranes); experiment: In vitro fusion ivitHC assay between GFP-FIP200 and mCherry-ATG16L1 membranes; assay type: biochemical; details: vesicles from cells induced for autophagy; BAPTA used at 20 μM
Procedure: 293A WT or SIGMAR1^KO cells were plated in 96 well plates and transfected with indicated Keima plasmids. Cells were incubated in full media or induced for autophagy by incubating with EBSS for 8 h. Cells were then incubated in full media and incubated with Hoechst 33342 for ten minutes in full media and then acquired for Keima fluorescence at 440 nm and 560 nm using the Cell Insight CX7 High-Content Screening (HCS) Platform (Thermo)(Kumar et al., 2019). In Vitro Fusion ivitHC Assay In vitro fusion assay was developed for HCM platform by modifying a previously described assay (Matsui et al., 2018a; Moreau et al., 2011). […]
One hypothesis that emerged from the above studies is that FIP200 and ATG16L1 represent two precursor membranes with STX17 facilitating heterotypic fusion between them early in autophagy. […] This method mixes vesicles from different cells expressing green (GFP-FIP200) and red (mCherry-ATG16L1) markers and after addition of an ATP and ATP-regenerating system vesicle fusion is monitored by fluorescence microscopy. We adapted this to permit HCM quantification allowing highly powered analyses and termed it IvitHC (in vitro fusion high content assay) (FIG. 2A). […]

[2] = tested on: STX17 and E-SYT2 interactions; experiment: Co-IP analysis of interactions of STX17 with E-SYT2 in 293T cells; assay type: cell-based; details: CQ treatment
Procedure: (§2) Immunoblotting and co-immunoprecipitation (co-IP) were performed as described previously (Kumar et al., 2018). For co-IP, cells were transfected with 10 μg of plasmids, wherever stated, and lysed in NP-40 buffer containing protease inhibitor cocktail (Roche, cat #11697498001) and PMSF (Sigma, cat #93482). Lysates were mixed with 5 μg antibody and incubated at 4° C. for overnight followed by incubation with Dynabeads protein G (Life Technologies) for 4 h, at 4° C. Beads were washed three times with PBS and then boiled with SDS-PAGE buffer for analysis of interacting protein by immunoblotting.

[3] = tested on: STX17 and SERCA2 interactions; experiment: Co-IP analysis of interactions of STX17 with SERCA2 in 293T cells; assay type: cell-based; details: CQ treatment
Procedure: as §2

[4] = tested on: LC3-ATG16L1 overlap in HeLa cells; experiment: HCM colocalization between FLAG-ATG16L1 and LC3 (LAP-like noncanonical autophagy); assay type: cell-based, human; details: WT or STX17KO HeLa cells; monensin 100 μM for 1 h
Procedure: as §1, with “Cells were stimulated for autophagy by incubating in EBSS for 2 h followed by fixation with 4% paraformaldehyde for 5 mins.” left out

CC(=O)OCOC(=O)CN(CC(=O)OCOC(C)=O)c1ccccc1OCCOc1ccccc1N(CC(=O)OCOC(C)=O)CC(=O)OCOC(C)=O [BAPTA-AM]
HyPAS formation (HyPAS formation; STX17KO HeLa cells, starvation-induced autophagy, BAPTA-AM treatment): did not further affect | HyPAS formation (HyPAS formation; WT HeLa cells, starvation-induced autophagy (EBSS, 2 h), BAPTA-AM treatment): reduced

CN(C)CCN(C)CCc1ccc(Cl)c(Cl)c1 [BD1047, BD-1047]
HyPAS formation induced by starvation (HyPAS formation; HeLa cells induced for autophagy (EBSS, 2 h), 10 μM for 1 h): inhibited

CCN(CC)CCCC(C)Nc1ccnc2cc(Cl)ccc12 (stereo not shown) [CQ, chloroquine]
HyPAS formation in vitro (IvitHC) [1]: inhibited | STX17 and E-SYT2 interactions (co-IP) [2]: inhibited | STX17 and SERCA2 interactions (co-IP) [3]: did not inhibit

C/C=C(/C)C(=O)O[C@H]1C(C)=C2[C@H]([C@@H]1OC(=O)CCCCCCC)[C@@](C)(OC(C)=O)C[C@H](OC(=O)CCC)[C@@]1(O)[C@H]2OC(=O)[C@@]1(C)O [TG, thapsigargin]
Effect of TG on HyPAS formation (HyPAS formation; STX17KO HeLa cells): abrogated | HyPAS formation (HyPAS formation; WT HeLa cells, basal conditions, thapsigargin treatment): increased

COc1ccc(CCN2CCN(CCCc3ccccc3)CC2)cc1OC [cutamesine]
HyPAS formation (HyPAS formation; cells grown in full medium, 100 nM for 2 h): induced

CC[C@@]1([C@@H]2O[C@@H]([C@H]3O[C@@](O)(CO)[C@H](C)C[C@@H]3C)C[C@@H]2C)CC[C@H]([C@]2(C)CC[C@]3(C[C@H](O)[C@@H](C)[C@@H]([C@@H](C)[C@@H](OC)[C@H](C)C(=O)O)O3)O2)O1 [monensin]
LC3-ATG16L1 overlap, as a measure of LAP-like noncanonical autophagy [4]: increase
